“Also recorded” adds a separate entry of the source.
Columns and labels:
[1] = biological target: T1, TGF-β1 (Homo sapiens, UniProt P01137); experiment: Differential scanning fluorimetry (DSF) of TGF-β1; format: binding
T1 construct: full length mature TGF-β1 is 112 amino acids in length
Procedure: DSF was performed on a 7500 Fast Real PCR System (software version 1.4, Applied Biosystems), as described previously (34,35). TGF-β1 (2.5 μM) was tested with or without heparin (25 μM). To facilitate the melting of TGF-β1, 10 mM of dithiothreitol (DTT) was added to the reaction mix. Experiments were run as previously described (34). First derivatives of the melting curves were calculated using Origin 7 (OriginLab Corp.) to determine the melting temperature of TGF-β1 under the various conditions.

[2] = test system: TGF-β1 signaling (pSMAD2, pSMAD3) in hMSCs; experiment: Western blotting of pSMAD2/pSMAD3 in hMSCs treated with TGF-β1 and GAG; format: cell-based, human; conditions: 6, 12, 24 and 48 h
Procedure: Primary hMSCs (Lonza) were isolated from the bone marrow mononuclear cells of a young healthy adult human donor by plastic adherence and characterized as previously described (30,31). The adherent cells were maintained in a basal media consisting of DMEM-low glucose (1000 mg/l, DMEM-LG) supplemented with 10% fetal calf serum, 100 U/ml penicillin, 100 μg/ml streptomycin and 2 mM L-glutamine, and cultured under standard conditions at 37° C. and 5% CO2 in a humidified atmosphere. Media replacement was every three days. Cells were detached with 0.125% trypsin/Versene (pH 7.0) upon reaching 75-80% confluence, and re-plated at a density of 3,000 cells/cm^2 under the same culture conditions. All experiments were carried out with cells at passage 5.
Human MSCs were cultured in 6-well plates in basal media for 24 h at a density of 10,000 cells/cm^2. TGF-β1 treatments were then prepared at either 1 ng/ml or 5 ng/ml alone or in the presence of either 10 μg/ml or 40 μg/ml of full length heparin, or 1 ng/ml of TGF-β1 with 10 μg/ml size-fractionated or selectively desulfated heparin, HS^PM, HS16+ or HS16−, and incubated at room temperature for 10 min before being added to the cells. Latent TGF-β1 (LTGF-β1) treatments were similarly prepared at 3.3 ng/ml alone or with 10 μg/ml of the various GAGs described above. For inhibitor studies, the cells were pre-treated for 30 min with 10 μM SB431542 (Sigma-Aldrich) or DMSO before treatment with TGF-β1. […] Samples were then immunoblotted with antibodies against SMAD2/3 (#3102, Cell Signaling), phosphorylated SMAD2 (pSMAD2, #3108, Cell Signaling), phosphorylated SMAD3 (pSMAD3, #9520, Cell Signaling) and actin (MAB1501R, Millipore). Densitometry was carried out using Quantity One software (version 4.6.6, Bio-Rad).

[3] = test system: chondrogenic differentiation of hMSCs; experiment: qPCR of chondrogenic micromass pellets (Example 2); format: cell-based, human
Procedure: Total RNA was isolated from chondrogenic micromass pellets using TRIZOL reagent (Life Technologies, CA, USA) according to the manufacturer's protocol. Reverse transcription was carried out on 1 μg RNA using the SuperScript® VILO™ cDNA Synthesis Kit (Life Technologies) following the manufacturer's instructions, with the incubation at 42° C. being carried out for 2 h instead of 1 h. Each qPCR contained 40 ng cDNA, 1 μL TaqMan® primer-probe mix per gene, and 10 μL Taqman® Fast Universal PCR Master Mix (Life Technologies) in a final volume of 20 μL. Thermal cycling conditions were 95° C. for 20 s, followed by 45 cycles of 95° C. for 1 s and 60° C. for 20 s. Each qPCR was run in duplicate and gene expression was normalised to HPRT1 expression to obtain the ΔCt value. The average value of biological triplicates was taken. Chondrogenic micromass pellets cultured in media without GAG or TGF-β1 were used as controls (ΔΔCt). Relative expression levels for each primer set were expressed as fold changes by the 2-ΔΔCt method [Livak, K. J. and T. D. Schmittgen, Analysis of Relative Gene Expression Data Using Real-Time Quantitative PCR and the 2-ΔΔCT Method. Methods, 2001. 25(4): p. 402-408]. The following TaqMan® primer-probe assays (Life technologies) were used:
(§1) In order to assess the effects of HS16+ve on the chondrogenic differentiation of hMSCs in vitro, it was first necessary to establish the effects of TGF-β1 alone. Chondrogenic differentiation was carried out using a modified micromass culture system. [Zhang, L., et al., Chondrogenic differentiation of human mesenchymal stem cells: a comparison between micromass and pellet culture systems. Biotechnol Lett, 2010. 32(9): p. 1339-1346.]. Briefly, passage 4 hMSCs were harvested and resuspended in chemically defined chondrogenic media (PT-3003, Lonza, MD, USA) at 2×10^7 cells/mL. Droplets of 12.5 μL were then seeded into the middle of each well in a 24-well plate and left to adhere at 37° C. for 2 h, after which, 500 μL of chondrogenic media supplemented with either 1 or 10 ng/mL of TGF-β1 (100-210, PeproTech) alone or with either 5 or 10 μg/mL of heparin (Sigma-Aldrich), porcine mucosal HS (HSPM) (Celsus laboratories), HS16+ve or HS16-ve was added to each well. The cell droplets coalesced into spherical masses after 24 h. Media was changed every 3 days and the micromasses harvested on days 3, 7, 14 and 21.
Next, hMSCs were differentiated for 21 days in the presence of 1 ng/mL TGF-β1 alone (1 TGF-β1) or in combination with 10 μg/mL of GAG (heparin, HSPM, HS16+ve or HS16−ve) or with 10 ng/mL TGF-β1 (10 TGF-β1) as a positive control.

[4] = test system: chondrogenic differentiation of hMSCs; experiment: Alcian blue staining of chondrogenic micromass pellets; format: cell-based, human
Procedure: as §1

[5] = test system: chondrogenic differentiation of hMSCs; experiment: Wet weight of chondrogenic micromass pellets; format: cell-based, human; conditions: 10 ng/mL TGF-β1 vs control; days 3, 7, 14 and 21
Procedure: as §1
Wet weights of the resulting control (Ctrl) and TGF-β1-treated (10 ng/mL) (TGF-β1) micromass pellets were taken at days 3, 7, 14 and 21 (FIG. 15).

[6] = 10 ng/mL TGF-β1, days 3, 7, 14 and 21

T1 sequence (P01137 279-390 limits assumed): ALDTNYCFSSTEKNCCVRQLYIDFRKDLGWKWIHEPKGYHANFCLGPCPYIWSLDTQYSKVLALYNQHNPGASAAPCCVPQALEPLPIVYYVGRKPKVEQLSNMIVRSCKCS

TGF-β1: transforming growth factor-β1 protein (PeproTech)
melting temperature of TGF-β1 ([1]; with 10 mM DTT, without heparin): 44 °C | melting temperature of TGF-β1 alone ([1]; without DTT): 66 °C | pSMAD2 signal ([2]; 1 ng/mL TGF-β1): quite intense at 6 h post treatment, and started to subside from 12 h onwards | pSMAD2 signal ([2]; 5 ng/mL and 10 ng/mL TGF-β1): remain saturated across all the time points tested | pSMAD3 signal ([2]; 5 ng/mL and 10 ng/mL TGF-β1): returned to background levels by 24 h | Type II collagen transcripts ([3]; 10 ng/mL TGF-β1): only detectable in TGF-β1-treated pellets and undifferentiated hMSCs | type X collagen transcripts relative to control pellets ([3]; 10 ng/mL TGF-β1): extremely high levels | COMP expression relative to untreated control pellets [3, 6]: increased expression | SOX9 expression relative to untreated control pellets [3, 6]: increased expression | aggrecan expression relative to untreated control pellets ([3]; 10 ng/mL TGF-β1, days 7, 14 and 21): increased expression | COMP expression, high (10 ng/mL) TGF-β1 relative to low dose TGF-β1 alone ([3]; 21 days): did not significantly alter COMP expression | type X collagen expression, high TGF-β1 relative to low TGF-β1 ([3]; day 21): significant increase | GAG production by Alcian blue staining, 10 ng/mL vs 1 ng/mL TGF-β1 ([4]; 21 days): increase in GAG production and deposition; also recorded: modest increase in GAG production | GAG content by Alcian blue staining vs control pellets ([4]; day 21, 10 ng/mL TGF-β1): more GAGs | wet weight of micromass pellets over time [5]: weight loss was less pronounced
